# Patent US8735584B2 (Merck Patent GmbH, priority 2008, dated 2014)
# Experiments:
# Assay type in all cases: biochemical
# AurA = biological target: T1, AurA (Homo sapiens, UniProt O14965); test: Desktop Profiler kinase panel, AurA; details: for inhibition at 10 µM: 10 micromolar concentration of the compound, read-out: Percent Inhibition AurA; for inhibition at 1 µM: 1 micromolar concentration of the compound
# T1 construct: purchased Caliper Life Sciences
# T1 sequence (O14965 1-403): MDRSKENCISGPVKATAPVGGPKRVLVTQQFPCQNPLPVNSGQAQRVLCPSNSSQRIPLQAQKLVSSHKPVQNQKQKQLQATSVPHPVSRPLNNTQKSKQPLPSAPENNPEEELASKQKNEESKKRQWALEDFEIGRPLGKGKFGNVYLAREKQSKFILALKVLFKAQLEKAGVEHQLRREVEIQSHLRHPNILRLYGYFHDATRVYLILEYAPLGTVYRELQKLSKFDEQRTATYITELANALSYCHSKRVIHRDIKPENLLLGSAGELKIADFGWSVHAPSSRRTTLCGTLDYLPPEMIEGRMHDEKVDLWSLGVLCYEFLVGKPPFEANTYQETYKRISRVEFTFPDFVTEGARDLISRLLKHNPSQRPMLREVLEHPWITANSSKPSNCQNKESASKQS
# Method: (§1) The Aurora assays described here are performed on two Caliper Life Sciences systems: the LC3000 and the Desktop Profiler. These provide data on enzyme activity via measurement of the relative amounts of phosphorylated or unphosphorylated fluorescently labelled substrate peptide at the end of an enzymatic reaction. These different states of peptide are resolved by applying a potential difference across the sample. The presence of the charged phosphate group on the product (as opposed to the substrate) causes a different peptide mobility between the two peptides. This is visualized by excitation of the fluorescent label on the substrate and product peptides and represented as peaks within the analysis software.
# (§2) The Desktop Profiler utilizes the same principle as the LC3000 for calculating percentage conversion of a substrate to product. Caliper Life Sciences provides proprietary flash frozen pre-made 384 well plates containing selected kinases. Each column in the 384 well plate contains a particular selected kinase. A second plate, the ‘substrate plate’ contains a mix of fluorescently labeled peptide substrate and ATP. These are arranged in columns so that transfer for substrate plate to enzyme plate provides the correct enzyme with the correct substrate/ATP concentration. Compounds are added to a thawed enzyme plate in the desired format, in single concentrations. Reactions are initiated by transfer of the substrate/ATP mix from the substrate plate. The enzyme plate is incubated for 90 mins at 25 C. The reaction is stopped by addition of 70 ul of Stop Buffer (100 mM HEPES pH 7.5, 0.015% Brij-35, 10 mM EDTA (Sigma, E7889)).
# (§3) Reading of the plate in the Profiler is identical to the LC3000, and the ratio between substrate and product peaks provides the activity of the enzyme in that well. This is best represented by a plate heat map which colors each well by percent inhibition as compared to positive and negative controls (no inhibitors and no ATP respectively).
# (§4) In the following Tables 3a-4-b, which show the results of the desktop profiler measurements, “+” means 50-70% inhibition, “++” means 70-90% inhibition, and “+++” means >90% inhibition. The enzymes tested for profiling were ABL, AKT1, AKT2, AurA, CHK1, CHK2, CK1d, Erk1, Erk2, FYN, GSK3b, INSR, LCK, LYN, MAPKAPK2, MET, MSK1, p38a, PKA, PKCz, PKD2, PRAK, RSK1 and SRC.
# GST-Aurora A = biological target: T2, GST-Aurora A (Homo sapiens, UniProt O14965); test: Aurora A IC50, Caliper LC3000 mobility shift assay; details: LC3000 method; 15 uM ATP (the KM value); read-out: Aurora Kinase A Activity (IC50)
# T2 construct: N-terminal GST fusion with full length Aurora A (1-403 amino acids); purchased Carna Biosciences 05-101
# T2 sequence (O14965 1-403): T1 sequence (O14965 1-403)
# Outline: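 Readout: percent conversion of FITC-LRRASLG (1 uM) to phosphopeptide, resolved electrophoretically on a Caliper LC3000, fitted against inhibitor concentration for IC50. Reaction: N-terminal GST full-length Aurora A, ATP at its KM (15 uM), pH 7.5 HEPES with MgCl2/DTT, 25 C for 90 min.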
# ABL = biological target: T3, ABL (Homo sapiens, UniProt P00519); test: Desktop Profiler kinase panel, ABL; details: for inhibition at 10 µM: 10 micromolar concentration of the compound, read-out: Percent Inhibition ABL; for inhibition at 1 µM: 1 micromolar concentration of the compound
# T3 construct: purchased Caliper Life Sciences
# Method: as §1, §2, §3, §4
# FYN = biological target: T4, FYN (Homo sapiens, UniProt P06241); test: Desktop Profiler kinase panel, FYN; details: for inhibition at 10 µM: 10 micromolar concentration of the compound, read-out: Percent Inhibition FYN; for inhibition at 1 µM: 1 micromolar concentration of the compound
# T4 construct: purchased Caliper Life Sciences
# Method: as §1, §2, §3, §4
# LYN = biological target: T5, LYN (Homo sapiens, UniProt P07948); test: Desktop Profiler kinase panel, LYN; details: 10 micromolar concentration of the compound; read-out: Percent Inhibition LYN
# T5 construct: purchased Caliper Life Sciences
# Method: as §1, §2, §3, §4
# SRC = biological target: T6, SRC (Homo sapiens, UniProt P12931); test: Desktop Profiler kinase panel, SRC; details: for inhibition at 10 µM: 10 micromolar concentration of the compound, read-out: Percent Inhibition SRC
# T6 construct: purchased Caliper Life Sciences
# Method: as §1, §2, §3, §4
# CHK2 = biological target: T7, CHK2 (Homo sapiens, UniProt O96017); test: Desktop Profiler kinase panel, CHK2; details: 10 micromolar concentration of the compound; read-out: Percent Inhibition CHK2
# T7 construct: purchased Caliper Life Sciences
# Method: as §1, §2, §3, §4
# LCK = biological target: T8, LCK (Homo sapiens, UniProt P06239); test: Desktop Profiler kinase panel, LCK; details: for inhibition at 10 µM: 10 micromolar concentration of the compound, read-out: Percent Inhibition LCK
# T8 construct: purchased Caliper Life Sciences
# Method: as §1, §2, §3, §4
# [1] = 1 micromolar concentration of the compound
# T5 sequence (P07948 whole entry, species assumed): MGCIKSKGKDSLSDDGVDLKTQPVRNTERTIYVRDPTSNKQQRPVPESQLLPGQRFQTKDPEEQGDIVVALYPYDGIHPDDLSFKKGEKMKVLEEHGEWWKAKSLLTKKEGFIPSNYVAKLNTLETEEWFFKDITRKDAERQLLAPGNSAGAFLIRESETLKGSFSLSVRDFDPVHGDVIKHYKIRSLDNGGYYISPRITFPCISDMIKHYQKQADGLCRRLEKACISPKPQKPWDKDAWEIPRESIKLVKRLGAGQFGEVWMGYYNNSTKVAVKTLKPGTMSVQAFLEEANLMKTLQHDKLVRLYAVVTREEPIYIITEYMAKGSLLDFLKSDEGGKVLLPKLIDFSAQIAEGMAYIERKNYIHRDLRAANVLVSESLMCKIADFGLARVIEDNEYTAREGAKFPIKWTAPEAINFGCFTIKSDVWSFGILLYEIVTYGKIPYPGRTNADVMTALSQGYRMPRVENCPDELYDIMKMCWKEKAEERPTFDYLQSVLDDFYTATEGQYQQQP
# T7 sequence (O96017 whole entry, species assumed): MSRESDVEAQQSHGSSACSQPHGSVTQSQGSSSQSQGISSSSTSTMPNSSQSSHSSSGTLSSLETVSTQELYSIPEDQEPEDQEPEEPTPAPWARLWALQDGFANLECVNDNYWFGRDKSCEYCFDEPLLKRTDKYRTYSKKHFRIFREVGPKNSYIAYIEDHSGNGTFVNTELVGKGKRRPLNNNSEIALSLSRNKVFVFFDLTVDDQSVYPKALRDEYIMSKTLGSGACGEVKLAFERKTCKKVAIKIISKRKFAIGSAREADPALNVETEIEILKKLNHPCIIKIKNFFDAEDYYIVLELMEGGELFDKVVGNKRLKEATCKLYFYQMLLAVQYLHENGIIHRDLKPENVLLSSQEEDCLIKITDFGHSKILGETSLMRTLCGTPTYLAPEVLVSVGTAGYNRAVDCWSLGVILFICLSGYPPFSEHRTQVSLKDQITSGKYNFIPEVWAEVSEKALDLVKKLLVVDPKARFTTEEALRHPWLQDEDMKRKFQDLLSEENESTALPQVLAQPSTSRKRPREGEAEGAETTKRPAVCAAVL
# T6 sequence (P12931 whole entry, species assumed): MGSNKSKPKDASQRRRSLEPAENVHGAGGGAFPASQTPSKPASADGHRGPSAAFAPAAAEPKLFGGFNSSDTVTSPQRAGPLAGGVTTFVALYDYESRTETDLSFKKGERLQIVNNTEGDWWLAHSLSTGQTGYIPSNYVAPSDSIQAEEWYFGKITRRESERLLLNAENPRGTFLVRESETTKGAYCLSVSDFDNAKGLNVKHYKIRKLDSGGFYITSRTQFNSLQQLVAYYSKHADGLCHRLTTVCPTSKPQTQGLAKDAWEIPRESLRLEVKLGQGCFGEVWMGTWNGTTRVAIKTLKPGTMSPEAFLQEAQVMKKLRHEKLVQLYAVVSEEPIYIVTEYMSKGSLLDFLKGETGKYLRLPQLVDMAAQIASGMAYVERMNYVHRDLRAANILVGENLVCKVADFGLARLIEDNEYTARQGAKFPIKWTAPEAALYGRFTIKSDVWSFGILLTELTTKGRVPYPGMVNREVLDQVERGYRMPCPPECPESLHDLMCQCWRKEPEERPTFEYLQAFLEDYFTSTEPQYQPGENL
# T3 sequence (P00519 whole entry, species assumed): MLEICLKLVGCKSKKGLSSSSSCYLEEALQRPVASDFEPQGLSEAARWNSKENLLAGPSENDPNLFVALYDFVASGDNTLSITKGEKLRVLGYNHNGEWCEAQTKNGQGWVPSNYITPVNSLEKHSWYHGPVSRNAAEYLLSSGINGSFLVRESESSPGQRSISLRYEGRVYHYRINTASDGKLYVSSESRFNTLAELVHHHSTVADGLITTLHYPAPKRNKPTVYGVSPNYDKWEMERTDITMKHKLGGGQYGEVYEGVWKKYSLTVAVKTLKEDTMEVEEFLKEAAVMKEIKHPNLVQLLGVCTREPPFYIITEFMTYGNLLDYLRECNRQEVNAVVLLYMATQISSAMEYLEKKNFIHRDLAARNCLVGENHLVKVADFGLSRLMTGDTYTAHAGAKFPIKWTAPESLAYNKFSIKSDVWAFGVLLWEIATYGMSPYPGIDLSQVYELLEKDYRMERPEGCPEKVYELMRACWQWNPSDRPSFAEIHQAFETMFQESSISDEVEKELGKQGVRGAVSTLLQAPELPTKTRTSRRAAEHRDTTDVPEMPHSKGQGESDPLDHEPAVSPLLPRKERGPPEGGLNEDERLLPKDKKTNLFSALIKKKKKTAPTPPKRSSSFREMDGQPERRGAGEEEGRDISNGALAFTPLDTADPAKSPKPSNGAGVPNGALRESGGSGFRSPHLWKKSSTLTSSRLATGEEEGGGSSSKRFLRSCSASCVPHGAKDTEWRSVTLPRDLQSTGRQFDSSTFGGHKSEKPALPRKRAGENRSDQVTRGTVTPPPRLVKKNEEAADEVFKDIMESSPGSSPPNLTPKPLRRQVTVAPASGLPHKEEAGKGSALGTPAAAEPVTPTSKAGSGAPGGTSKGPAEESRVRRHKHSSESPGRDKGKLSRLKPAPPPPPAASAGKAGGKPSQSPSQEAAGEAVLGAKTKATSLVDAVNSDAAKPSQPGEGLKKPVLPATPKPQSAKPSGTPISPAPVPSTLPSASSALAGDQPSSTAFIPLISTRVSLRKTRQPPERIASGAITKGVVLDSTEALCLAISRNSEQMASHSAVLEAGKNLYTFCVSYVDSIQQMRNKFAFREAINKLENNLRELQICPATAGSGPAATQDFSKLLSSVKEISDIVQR
# T4 sequence (P06241 whole entry, species assumed): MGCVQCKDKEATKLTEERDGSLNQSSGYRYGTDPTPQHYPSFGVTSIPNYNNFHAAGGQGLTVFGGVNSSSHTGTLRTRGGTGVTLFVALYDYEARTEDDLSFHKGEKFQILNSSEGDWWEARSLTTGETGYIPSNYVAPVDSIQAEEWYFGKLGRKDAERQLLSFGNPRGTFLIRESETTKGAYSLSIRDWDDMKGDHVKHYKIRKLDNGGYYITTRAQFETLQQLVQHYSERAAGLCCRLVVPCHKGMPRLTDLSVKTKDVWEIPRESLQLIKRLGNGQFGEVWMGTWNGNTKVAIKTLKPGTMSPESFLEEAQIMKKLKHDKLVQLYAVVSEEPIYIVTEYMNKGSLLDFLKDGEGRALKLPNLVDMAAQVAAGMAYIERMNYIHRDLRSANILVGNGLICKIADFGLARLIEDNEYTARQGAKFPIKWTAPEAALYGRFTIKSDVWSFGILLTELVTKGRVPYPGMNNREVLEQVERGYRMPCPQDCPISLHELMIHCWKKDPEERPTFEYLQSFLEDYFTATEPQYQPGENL
# T8 sequence (P06239 whole entry, species assumed): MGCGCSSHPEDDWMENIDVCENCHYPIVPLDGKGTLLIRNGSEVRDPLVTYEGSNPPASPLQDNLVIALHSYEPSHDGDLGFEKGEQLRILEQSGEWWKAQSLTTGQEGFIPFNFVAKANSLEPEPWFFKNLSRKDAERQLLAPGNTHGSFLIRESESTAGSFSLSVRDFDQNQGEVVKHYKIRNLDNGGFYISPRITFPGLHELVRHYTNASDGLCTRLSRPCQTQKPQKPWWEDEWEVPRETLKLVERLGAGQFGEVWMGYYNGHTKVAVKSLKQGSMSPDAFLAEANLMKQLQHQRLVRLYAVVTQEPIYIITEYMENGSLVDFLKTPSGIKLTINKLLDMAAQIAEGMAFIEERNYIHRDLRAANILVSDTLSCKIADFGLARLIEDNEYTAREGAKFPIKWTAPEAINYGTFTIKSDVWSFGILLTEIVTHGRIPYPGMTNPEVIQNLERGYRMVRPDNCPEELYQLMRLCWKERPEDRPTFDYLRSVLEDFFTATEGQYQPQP
inhibition at 10 µM (AurA),inhibition at 1 µM (AurA),IC50 (GST-Aurora A),inhibition at 10 µM (FYN),SMILES,other results
50 to 70%,–,–,–,"Nc1ccnc2[nH]c(=O)c3ccccc3c12 [Example 141, 1-Amino-5H-benzo[c][1,8]naphthyridin-6-one]",–
–,> 90%,> 100 nM,–,"O=c1[nH]c2ncccc2c2cc(NCc3cccc(F)c3)ccc12 [Example 35, 9-(3-Fluoro-benzylamino)-5H-benzo[c][1,8]naphthyridin-6-one]",–
–,70 to 90%,> 100 nM,–,"O=c1[nH]c2ncccc2c2cc(NCc3ccccc3)ccc12 [Example 25, 9-Benzylamino-5H-benzo[c][1,8]naphthyridin-6-one]",–
50 to 70%,–,–,–,"O=c1[nH]c2ncc(Cl)cc2c2ccccc12 [Example 9, 2-Chloro-5H-benzo[c][1,8]naphthyridin-6-one]",–
50 to 70%,–,–,–,"COc1cccc(CNc2cnc3[nH]c(=O)c4ccccc4c3c2)c1 [Example 38, 2-(3-Methoxy-benzylamino)-5H-benzo[c][1,8]naphthyridin-6-one]",–
> 90%,70 to 90%,> 100 nM,50 to 70%,"COc1ccccc1Nc1ccc2c(=O)[nH]c3ncccc3c2c1 [Example 30, 9-(2-Methoxy-phenylamino)-5H-benzo[c][1,8]naphthyridin-6-one]",inhibition at 10 µM (ABL): 50 to 70%; inhibition at 10 µM (LYN): 70 to 90%; inhibition at 10 µM (SRC): 50 to 70%
–,–,–,–,"COc1ccc(Oc2ccnc3[nH]c(=O)c4ccccc4c23)cc1 [Example 125, 1-(4-Methoxy-phenoxy)-5H-benzo[c][1,8]naphthyridin-6-one]",inhibition at 1 µM (ABL): 70 to 90%; inhibition at 1 µM (FYN): 70 to 90%
> 90%,50 to 70%,> 100 nM,50 to 70%,"COc1ccc(CCNc2ccc3c(=O)[nH]c4ncccc4c3c2)cc1 [Example 36, 9-[2-(4-Methoxy-phenyl)-ethylamino]-5H-benzo[c][1,8]naphthyridin-6-one]",inhibition at 10 µM (CHK2): 70 to 90%
50 to 70%,–,–,–,"O=c1[nH]c2ncccc2c2cc(Cl)ccc12 [Example 6, 9-Chloro-5H-benzo[c][1,8]naphthyridin-6-one]",–
70 to 90%,50 to 70%,> 100 nM,–,"COc1ccc(Nc2ccc3c(=O)[nH]c4ncccc4c3c2)cc1 [Example 29, 9-(4-Methoxy-phenylamino)-5H-benzo[c][1,8]naphthyridin-6-one]",–
–,> 90%,> 100 nM,–,"COc1ccccc1CNc1ccc2c(=O)[nH]c3ncccc3c2c1 [Example 34, 9-(2-Methoxy-benzylamino)-5H-benzo[c][1,8]naphthyridin-6-one]",–
50 to 70%,–,–,70 to 90%,"O=c1[nH]c2nccc(Nc3ccc(Oc4ccccc4)cc3)c2c2ccccc12 [Example 121, 1-(4-Phenoxy-phenylamino)-5H-benzo[c][1,8]naphthyridin-6-one]",inhibition at 10 µM (LCK): 70 to 90%; inhibition at 10 µM (LYN): 70 to 90%; inhibition at 10 µM (SRC): 70 to 90%
70 to 90%,50 to 70%,–,> 90%,"O=c1[nH]c2nccc(Nc3ccccc3)c2c2ccccc12 [Example 95, 1-Phenylamino-5H-benzo[c][1,8]naphthyridin-6-one]",inhibition at 1 µM (ABL): > 90%; inhibition at 10 µM (ABL): > 90%; inhibition at 10 µM (CHK2): 50 to 70%; inhibition at 1 µM (FYN): > 90%; inhibition at 1 µM (LCK; [1]): 50 to 70%; inhibition at 10 µM (LCK): 70 to 90%; inhibition at 10 µM (LYN): > 90%; inhibition at 1 µM (SRC; [1]): > 90%; inhibition at 10 µM (SRC): > 90%
70 to 90%,50 to 70%,–,–,"COc1ccc(CNc2ccc3c(=O)[nH]c4ncccc4c3c2)cc1 [Example 33, 9-(4-Methoxy-benzylamino)-5H-benzo[c][1,8]naphthyridin-6-one]",–
70 to 90%,–,–,–,"O=c1[nH]c2ncccc2c2cc(N3CCOCC3)ccc12 [Example 26, 9-Morpholin-4-yl-5H-benzo[c][1,8]naphthyridin-6-one]",inhibition at 10 µM (CHK2): 50 to 70%
70 to 90%,–,> 100 nM,> 90%,"Clc1nc2nccc(Nc3ccccc3)c2c2ccccc12 [Example 139, (6-Chloro-benzo[c][1,8]naphthyridin-1-yl)-phenyl-amine]",inhibition at 10 µM (ABL): > 90%; inhibition at 10 µM (CHK2): 50 to 70%; inhibition at 10 µM (LCK): 70 to 90%; inhibition at 10 µM (LYN): > 90%; inhibition at 10 µM (SRC): > 90%
–,–,–,50 to 70%,"O=c1[nH]c2ncc(Nc3ccccc3)cc2c2ccccc12 [Example 12, 2-Phenylamino-5H-benzo[c][1,8]naphthyridin-6-one]",inhibition at 10 µM (ABL): 70 to 90%
50 to 70%,–,–,–,"COc1ccccc1CNc1cnc2[nH]c(=O)c3ccccc3c2c1 [Example 39, 2-(2-Methoxy-benzylamino)-5H-benzo[c][1,8]naphthyridin-6-one]",–
–,–,–,> 90%,"O=c1[nH]c2ncc(NCc3ccccc3)cc2c2ccccc12 [Example 13, 2-Benzylamino-5H-benzo[c][1,8]naphthyridin-6-one]",inhibition at 10 µM (ABL): 50 to 70%; inhibition at 10 µM (LCK): 50 to 70%; inhibition at 10 µM (LYN): 70 to 90%; inhibition at 10 µM (SRC): 70 to 90%
70 to 90%,–,–,–,"COCCNc1ccc2c(=O)[nH]c3ncccc3c2c1 [Example 27, 9-(2-Methoxy-ethylamino)-5H-benzo[c][1,8]naphthyridin-6-one]",inhibition at 10 µM (CHK2): 50 to 70%
–,–,–,50 to 70%,"Clc1nc2nccc(Oc3ccccc3)c2c2ccccc12 [Example 140, 6-Chloro-1-phenoxy-benzo[c][1,8]naphthyridine]",inhibition at 10 µM (ABL): 50 to 70%; inhibition at 10 µM (SRC): 50 to 70%
50 to 70%,–,–,–,"COc1ccc(CNc2cnc3[nH]c(=O)c4ccccc4c3c2)cc1 [Example 37, 2-(4-Methoxy-benzylamino)-5H-benzo[c][1,8]naphthyridin-6-one]",–
–,–,> 100 nM,–,"O=C(Nc1ccc(Oc2ccnc3[nH]c(=O)c4ccccc4c23)c(F)c1)c1cc(Cl)cnc1Cl [Example 183, 2,5-Dichloro-N-[3-fluoro-4-(6-oxo-5,6-dihydro-benzo[c][1,8]naphthyridin-1-yloxy)-phenyl]-nicotinamide]",–
–,–,< 11 nM,–,"O=C(Nc1ccccc1)Nc1ccc(Nc2ccnc3[nH]c(=O)c4ccccc4c23)cc1 [Compound 343, 1-(4-(6-Oxo-5,6-dihydrobenzo[c][1,8]naphthyridin-1-ylamino)phenyl)-3-phenylurea]",–
–,–,> 100 nM,–,"O=c1[nH]c2ncccc2c2cc(NCc3c(F)cccc3C(F)(F)F)ccc12 [Compound 461, 9-(2-Fluoro-6-(trifluoromethyl)benzylamino)benzo[c][1,8]naphthyridin-6(5H)-one]",–
